How the values were obtained:
[1] = tested on: velvetleaf; assay: Test A pre-/postemergence herbicide test; type: in vivo, Abutilon theophrasti
Summary of the method: (§1)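 Greenhouse pot test with pre- and postemergence application of surfactant-containing solvent formulations. Postemergence plants were 2–10 cm, one- to two-leaf stage. Response scored visually after ~10 days, 0 (no effect) to 100 (complete control).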

[2] = tested on: pigweed; assay: Test A pre-/postemergence herbicide test; type: in vivo, Amaranthus retroflexus
Summary of the method: as §1

[3] = tested on: sedge, umbrella; assay: Test C flooded paddy test; type: in vivo, Cyperus difformis; details: Flood
From the text: (§2) Plant species in the flooded paddy test consisted of rice (Oryza sativa), sedge, umbrella (small-flower umbrella sedge, Cyperus difformis), ducksalad (Heteranthera limosa), and barnyardgrass (Echinochloa crus-galli) grown to the 2-leaf stage for testing. At time of treatment, test pots were flooded to 3 cm above the soil surface, treated by application of test compounds directly to the paddy water, and then maintained at that water depth for the duration of the test. Treated plants and controls were maintained in a greenhouse for 13 to 15 days, after which time all species were compared to controls and visually evaluated. Plant response ratings, summarized in Table C, are based on a scale of 0 to 100 where 0 is no effect and 100 is complete control. A dash (-) response means no test result.

[4] = tested on: morningglory; assay: Test A pre-/postemergence herbicide test; type: in vivo, Ipomoea spp.
Summary of the method: as §1

[5] = tested on: rice; assay: Test C flooded paddy test; type: in vivo, Oryza sativa; details: Flood
From the text: as §2

[6] = tested on: ducksalad; assay: Test C flooded paddy test; type: in vivo, Heteranthera limosa; details: Flood
From the text: as §2

[7] = tested on: crabgrass, large; assay: Test A pre-/postemergence herbicide test; type: in vivo, Digitaria sanguinalis
Summary of the method: as §1

[8] = tested on: corn; assay: Test A pre-/postemergence herbicide test; type: in vivo, Zea mays
Summary of the method: as §1

[9] = tested on: barnyardgrass; assay: Test A pre-/postemergence herbicide test; type: in vivo, Echinochloa crus-galli
Summary of the method: as §1

[10] = tested on: giant foxtail; assay: Test A pre-/postemergence herbicide test; type: in vivo, Setaria faberii
Summary of the method: as §1

[11] = tested on: barnyardgrass; assay: Test C flooded paddy test; type: in vivo, Echinochloa crus-galli; details: Flood
From the text: as §2

[12] = tested on: wheat; assay: Test A pre-/postemergence herbicide test; type: in vivo, Triticum aestivum
Summary of the method: as §1

[13] = tested on: kochia; assay: Test A pre-/postemergence herbicide test; type: in vivo, Kochia scoparia; details: for Plant response rating, Kochia: 0 to 100 scale
From the text: (§3) Seeds of plant species selected from bamyardgrass (Echinochloa crus-galli), kochia (Kochia scoparia), ragweed (common ragweed, Ambrosia elatior), ryegrass, Italian (Italian ryegrass, Lolium multiflorum), crabgrass, large (large crabgrass Digitaria sanguinalis), giant foxtail (Setaria faberii), morningglory (Ipomoea spp.), pigweed (Amaranthus retroflexus), velvetleaf (Abutilon theophrasti), wheat (Triticum aestivum), and corn (Zea mays) were planted into a blend of loam soil and sand and treated preemergence with a directed soil spray using test chemicals formulated in a non-phytotoxic solvent mixture which included a surfactant. At the same time, plants selected from these crop and weed species and also blackgrass (Alopecurus myosuroides), and galium (catchweed bedstraw, Galium aparine) were planted in pots containing the same blend of loam soil and sand and treated with postemergence applications of test chemicals formulated in the same manner. Plants ranged in height from 2 to 10 cm and were in the one- to two-leaf stage for the postemergence treatment. Treated plants and untreated controls were maintained in a greenhouse for approximately 10 days, after which time all treated plants were compared to untreated controls and visually evaluated for injury. Plant response ratings, summarized in Table A, are based on a 0 to 100 scale where 0 is no effect and 100 is complete control. A dash (-) response means no test result.

[14] = tested on: ryegrass, Italian; assay: Test A pre-/postemergence herbicide test; type: in vivo, Lolium multiflorum; details: for Plant response rating, Ryegrass, Italian: 0 to 100 scale
From the text: as §3

[15] = tested on: blackgrass; assay: Test A postemergence herbicide test; type: in vivo, Alopecurus myosuroides
Summary of the method: (§4)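 Potted in loam soil/sand blend; postemergence application at 1–2 leaf stage (2–10 cm). Greenhouse ~10 d. Visual injury vs untreated, 0–100 scale; 100 = complete control.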

[16] = tested on: ragweed; assay: Test A pre-/postemergence herbicide test; type: in vivo, Ambrosia elatior; details: for Plant response rating, Ragweed: 0 to 100 scale
Summary of the method: as §1

[17] = tested on: galium; assay: Test A postemergence herbicide test; type: in vivo, Galium aparine
Summary of the method: as §4

[18] = Postemergence, 125 g ai/ha, 0 to 100 scale, 0 no effect, 100 complete control
[19] = Postemergence, 500 g ai/ha, 0 to 100 scale (0 no effect, 100 complete control)
[20] = Preemergence, 125 g ai/ha, visual rating on 0 to 100 scale (0 no effect, 100 complete control)
[21] = preemergence, 500 g ai/ha, 0 to 100 scale
[22] = 31 g ai/ha, scale of 0 to 100 where 0 is no effect and 100 is complete control, 13 to 15 days
[23] = 62 g ai/ha, scale of 0 to 100 where 0 is no effect and 100 is complete control, 13 to 15 days
[24] = 125 g ai/ha, scale of 0 to 100 where 0 is no effect and 100 is complete control, 13 to 15 days
[25] = 125 g ai/ha, visual rating, 0 no effect, 100 complete control, approximately 10 days, preemergence
[26] = Postemergence, 125 g ai/ha, 0 is no effect, 100 is complete control
[27] = preemergence, 500 g ai/ha, 0 is no effect and 100 is complete control
[28] = 125 g ai/ha, visual rating, 0 to 100 scale, 0 no effect, 100 complete control, approximately 10 days, preemergence
[29] = Postemergence, 125 g ai/ha, 0 to 100 scale, 0 is no effect, 100 is complete control
[30] = preemergence, 500 g ai/ha, 0 to 100 scale, 0 is no effect and 100 is complete control
[31] = 125 g ai/ha, 0 to 100 scale, 0 is no effect, 100 is complete control

CC1NC(=O)C(C(=O)Nc2ccccc2F)C1c1ccc(F)c(F)c1 (mixture of isomers) [Compound 8]
Plant response rating, Velvetleaf [1, 18]: 0 | Plant response rating, Velvetleaf [1, 19]: 0 | Velvetleaf plant response rating [1, 20]: 0 | Plant response rating, Velvetleaf [1, 21]: 0 | Plant response rating, Pigweed [2, 18]: 0 | Plant response rating, Pigweed [2, 19]: 0 | Pigweed plant response rating [2, 20]: 0 | Plant response rating, Pigweed [2, 21]: 0 | Plant response rating, Sedge, Umbrella [3, 22]: 0 | Plant response rating, Sedge, Umbrella [3, 23]: 0 | Plant response rating, Sedge, Umbrella [3, 24]: 0 | Plant response rating, Sedge, Umbrella ([3]; 250 g ai/ha, scale 0 to 100): 0 | Plant response rating, Morningglory [4, 18]: 0 | Plant response rating, Morningglory [4, 19]: 0 | Morningglory plant response rating [4, 20]: 0 | Plant response rating, Morningglory [4, 21]: 0 | Plant response rating, Rice [5, 22]: 0 | Plant response rating, Rice [5, 23]: 0 | Plant response rating, Rice [5, 24]: 0 | Plant response rating, Rice ([5]; 250 g ai/ha, scale 0 to 100): 0 | Plant response rating, Ducksalad [6, 22]: 0 | Plant response rating, Ducksalad [6, 23]: 0 | Plant response rating, Ducksalad [6, 24]: 0 | Plant response rating, Ducksalad ([6]; 250 g ai/ha, scale 0 to 100): 0 | Plant response rating, Crabgrass, Large [7, 18]: 60 | Plant response rating, Crabgrass, Large [7, 19]: 70 | Crabgrass, Large plant response rating [7, 20]: 80 | Plant response rating, Crabgrass, Large [7, 21]: 90 | Plant response rating, Corn [8, 18]: 0 | Plant response rating, Corn [8, 19]: 0 | Corn plant response rating [8, 20]: 0 | Plant response rating, Corn [8, 21]: 20 | Plant response rating, Barnyardgrass [9, 18]: 20 | Plant response rating, Barnyardgrass [9, 19]: 60 | Barnyardgrass plant response rating [9, 20]: 20 | Plant response rating, Barnyardgrass ([9]; preemergence, 500 g ai/ha, 0 to 100 scale (0 no effect, 100 complete control)): 60 | Plant response rating, Foxtail, Giant [10, 18]: 0 | Plant response rating, Foxtail, Giant [10, 19]: 50 | Foxtail, Giant plant response rating [10, 20]: 60 | Plant response rating, Foxtail, Giant [10, 21]: 90 | Plant response rating, Barnyardgrass [11, 22]: 0 | Plant response rating, Barnyardgrass [11, 23]: 0 | Plant response rating, Barnyardgrass [11, 24]: 0 | Plant response rating, Barnyardgrass ([11]; 250 g ai/ha, scale 0 to 100): 0 | Plant response rating, Wheat [12, 18]: 0 | Plant response rating, Wheat [12, 19]: 0 | Wheat plant response rating [12, 20]: 0 | Plant response rating, Wheat [12, 21]: 0

Cc1cc(NC(=O)C2C(=O)NCC2c2cccc(C(F)(F)F)c2)ccc1F (racemic) [Compound 185]
Plant response rating, Kochia [13, 25]: 0 | Plant response rating, Kochia [13, 26]: 0 | Kochia plant response rating (0 to 100 scale, 0 is no effect, 100 is complete control) ([13]; Postemergence, 500 g ai/ha): 0 | Plant response rating, Kochia [13, 27]: 40 | Plant response rating, Pigweed [2, 28]: 0 | Plant response rating, Pigweed [2, 29]: 0 | Pigweed plant response rating (0 to 100 scale, 0 is no effect, 100 is complete control) ([2]; Postemergence, 500 g ai/ha): 0 | Plant response rating, Pigweed [2, 30]: 20 | Plant response rating, Ryegrass, Italian [14, 25]: 0 | Plant response rating, Ryegrass, Italian [14, 26]: 0 | Ryegrass, Italian plant response rating (0 to 100 scale, 0 is no effect, 100 is complete control) ([14]; Postemergence, 500 g ai/ha): 0 | Plant response rating, Ryegrass, Italian [14, 27]: 20 | Plant response rating, Blackgrass [15, 31]: 0 | Blackgrass plant response rating (0 to 100 scale, 0 is no effect, 100 is complete control) ([15]; 500 g ai/ha): 20 | Plant response rating, Corn [8, 29]: 0 | Corn plant response rating (0 to 100 scale, 0 is no effect, 100 is complete control) ([8]; Postemergence, 500 g ai/ha): 20 | Plant response rating, Barnyardgrass [9, 28]: 40 | Plant response rating, Barnyardgrass [9, 29]: 40 | Barnyardgrass plant response rating (0 to 100 scale, 0 is no effect, 100 is complete control) ([9]; Postemergence, 500 g ai/ha): 80 | Plant response rating, Barnyardgrass [9, 30]: 70 | Plant response rating, Foxtail, Giant [10, 28]: 70 | Plant response rating, Foxtail, Giant [10, 29]: 20 | Foxtail, Giant plant response rating (0 to 100 scale, 0 is no effect, 100 is complete control) ([10]; Postemergence, 500 g ai/ha): 80 | Plant response rating, Foxtail, Giant [10, 30]: 90 | Plant response rating, Ragweed [16, 25]: 0 | Plant response rating, Ragweed [16, 26]: 0 | Ragweed plant response rating (0 to 100 scale, 0 is no effect, 100 is complete control) ([16]; Postemergence, 500 g ai/ha): 0 | Plant response rating, Ragweed [16, 27]: 0 | Plant response rating, Wheat [12, 29]: 0 | Wheat plant response rating (0 to 100 scale, 0 is no effect, 100 is complete control) ([12]; Postemergence, 500 g ai/ha): 20 | Plant response rating, Galium [17, 31]: 0 | Galium plant response rating (0 to 100 scale, 0 is no effect, 100 is complete control) ([17]; 500 g ai/ha): 0
